The NIST ThermoML archive (doi:10.1016/j.jct.2016.02.009)
Several values for one entry are separate records, joined by “and”; a condition that tells them apart may be missing. Equal values may be shown once.

Experiment: molar heat capacity at constant pressure
Conditions: 101.33 kPa, Small (less than 1 g) adiabatic calorimetry

CCCCCCCCCCCCCCn1cc[n+](C)c1.O=S(=O)([N-]S(=O)(=O)C(F)(F)F)C(F)(F)F
Conditions | molar heat capacity at constant pressure
180 K, Crystal 2 | 473.1 J/K/mol
180.86 K, Crystal 2 | 474.8 J/K/mol
181.71 K, Crystal 2 | 476.2 J/K/mol
183.59 K, Crystal 2 | 479.9 J/K/mol
184.16 K, Crystal 2 | 480.9 J/K/mol
186.32 K, Crystal 2 | 485.4 J/K/mol
186.61 K, Crystal 2 | 485.8 J/K/mol
189.04 K, Crystal 2 | 490.7 J/K/mol
189.07 K, Crystal 2 | 490.4 J/K/mol
190 K, Crystal 2 | 492.5 J/K/mol
191.51 K, Crystal 2 | 495.2 J/K/mol
191.77 K, Crystal 2 | 496.1 J/K/mol
193.95 K, Crystal 2 | 500 J/K/mol
194.49 K, Crystal 2 | 501.3 J/K/mol
196.39 K, Crystal 2 | 504.9 J/K/mol
197.2 K, Crystal 2 | 507 J/K/mol
198.82 K, Crystal 2 | 509.9 J/K/mol
199.91 K, Crystal 2 | 512.5 J/K/mol
200 K, Crystal 2 | 512.7 J/K/mol
201.26 K, Crystal 2 | 515.7 J/K/mol
202.62 K, Crystal 2 | 518.2 J/K/mol
203.7 K, Crystal 2 | 520.6 J/K/mol
205.33 K, Crystal 2 | 523.7 J/K/mol
206.13 K, Crystal 2 | 525.4 J/K/mol
208.03 K, Crystal 2 | 529.6 J/K/mol
208.56 K, Crystal 2 | 530.7 J/K/mol
210 K, Crystal 2 | 533.6 J/K/mol
210.73 K, Crystal 2 | 535.2 J/K/mol
210.99 K, Crystal 2 | 535.9 J/K/mol
213.42 K, Crystal 2 | 541.2 J/K/mol and 540.9 J/K/mol
215.85 K, Crystal 2 | 546.3 J/K/mol
216.12 K, Crystal 2 | 547 J/K/mol
218.27 K, Crystal 2 | 551.8 J/K/mol
218.8 K, Crystal 2 | 552.9 J/K/mol
220 K, Crystal 2 | 556 J/K/mol
220.69 K, Crystal 2 | 557.4 J/K/mol
221.49 K, Crystal 2 | 559.3 J/K/mol
223.1 K, Crystal 2 | 562.9 J/K/mol
224.17 K, Crystal 2 | 565.7 J/K/mol
225.52 K, Crystal 2 | 568.8 J/K/mol
226.84 K, Crystal 2 | 572.3 J/K/mol
227.93 K, Crystal 2 | 575.1 J/K/mol
229.5 K, Crystal 2 | 579.5 J/K/mol
230 K, Crystal 2 | 580.3 J/K/mol
230.33 K, Crystal 2 | 581.3 J/K/mol
232.15 K, Crystal 2 | 586.6 J/K/mol
232.74 K, Crystal 2 | 587.7 J/K/mol
234.8 K, Crystal 2 | 593.8 J/K/mol
235.14 K, Crystal 2 | 593.7 J/K/mol
237.44 K, Crystal 2 | 600.9 J/K/mol
237.53 K, Crystal 2 | 600.1 J/K/mol
239.92 K, Crystal 2 | 607.2 J/K/mol
240 K, Crystal 2 | 607.6 J/K/mol
240.07 K, Crystal 2 | 608 J/K/mol
242.33 K, Crystal 2 | 613.8 J/K/mol
242.71 K, Crystal 2 | 616.1 J/K/mol
244.72 K, Crystal 2 | 621.4 J/K/mol
245.33 K, Crystal 2 | 624.4 J/K/mol
247.1 K, Crystal 2 | 629.1 J/K/mol
247.95 K, Crystal 2 | 632.9 J/K/mol
249.48 K, Crystal 2 | 637 J/K/mol
250 K, Crystal 2 | 639.3 J/K/mol
250.55 K, Crystal 2 | 642.1 J/K/mol
251.33 K, Crystal 2 | 642.4 J/K/mol
252.65 K, Crystal 2 | 648 J/K/mol
253.15 K, Crystal 2 | 651.7 J/K/mol
253.97 K, Crystal 2 | 653.1 J/K/mol
255.29 K, Crystal 2 | 657.1 J/K/mol
255.74 K, Crystal 2 | 660.9 J/K/mol
256.6 K, Crystal 2 | 662.4 J/K/mol
257.91 K, Crystal 2 | 667.6 J/K/mol
258.31 K, Crystal 2 | 671.7 J/K/mol
259.22 K, Crystal 2 | 673.8 J/K/mol
260 K, Crystal 2 | 677.5 J/K/mol
260.52 K, Crystal 2 | 679.4 J/K/mol
260.86 K, Crystal 2 | 683.4 J/K/mol
261.81 K, Crystal 2 | 685.8 J/K/mol
263.1 K, Crystal 2 | 692.1 J/K/mol
263.41 K, Crystal 2 | 696 J/K/mol
264.39 K, Crystal 2 | 699.3 J/K/mol
265.67 K, Crystal 2 | 706.4 J/K/mol
265.94 K, Crystal 2 | 709.4 J/K/mol
266.97 K, Crystal 2 | 713.8 J/K/mol
268.24 K, Crystal 2 | 721.6 J/K/mol
268.46 K, Crystal 2 | 725 J/K/mol
269.5 K, Crystal 2 | 730 J/K/mol
270 K, Crystal 2 | 734.5 J/K/mol
270.76 K, Crystal 2 | 739.3 J/K/mol
270.95 K, Crystal 2 | 741.9 J/K/mol
272.01 K, Crystal 2 | 748.9 J/K/mol
273.25 K, Crystal 2 | 759 J/K/mol
273.42 K, Crystal 2 | 761.2 J/K/mol
274.48 K, Crystal 2 | 769.6 J/K/mol
275.71 K, Crystal 2 | 781.6 J/K/mol
275.87 K, Crystal 2 | 783.5 J/K/mol
276.93 K, Crystal 2 | 793.6 J/K/mol
278.14 K, Crystal 2 | 807.6 J/K/mol
278.29 K, Crystal 2 | 809.7 J/K/mol
279.35 K, Crystal 2 | 822 J/K/mol
280 K, Crystal 2 | 830.5 J/K/mol
280.54 K, Crystal 2 | 837.6 J/K/mol
280.67 K, Crystal 2 | 840.7 J/K/mol
281.72 K, Crystal 2 | 855 J/K/mol
282.9 K, Crystal 2 | 874.3 J/K/mol
283.02 K, Crystal 2 | 878.3 J/K/mol
284.05 K, Crystal 2 | 895.5 J/K/mol
285.2 K, Crystal 2 | 918.1 J/K/mol
285.31 K, Crystal 2 | 923.3 J/K/mol
286.34 K, Crystal 2 | 943.8 J/K/mol
287.46 K, Crystal 2 | 972.2 J/K/mol
287.56 K, Crystal 2 | 977.1 J/K/mol
288.56 K, Crystal 2 | 1003 J/K/mol
289.65 K, Crystal 2 | 1034 J/K/mol
289.75 K, Crystal 2 | 1039 J/K/mol
290 K, Crystal 2 | 1046 J/K/mol
290.72 K, Crystal 2 | 1067 J/K/mol
291.76 K, Crystal 2 | 1097 J/K/mol
291.87 K, Crystal 2 | 1102 J/K/mol
292.8 K, Crystal 2 | 1118 J/K/mol
293.83 K, Crystal 2 | 1139 J/K/mol
293.96 K, Crystal 2 | 1145 J/K/mol
294.85 K, Crystal 2 | 1153 J/K/mol
295.5 K, Crystal 1 | 1155 J/K/mol
295.5 K, Crystal 2 | 1155 J/K/mol
295.86 K, Crystal 1 | 1154 J/K/mol
296 K, Crystal 1 | 1156 J/K/mol
296.87 K, Crystal 1 | 1144 J/K/mol
297.93 K, Crystal 1 | 998.8 J/K/mol
298.13 K, Crystal 1 | 971.7 J/K/mol
298.15 K, Crystal 1 | 971.6 J/K/mol
299.06 K, Crystal 1 | 853.3 J/K/mol
300 K, Crystal 1 | 851.8 J/K/mol
300.22 K, Crystal 1 | 854.4 J/K/mol
300.42 K, Crystal 1 | 852.5 J/K/mol
301.39 K, Crystal 1 | 866.6 J/K/mol
302.54 K, Crystal 1 | 889.6 J/K/mol
302.77 K, Crystal 1 | 884.7 J/K/mol
303.68 K, Crystal 1 | 937.6 J/K/mol
304.77 K, Crystal 1 | 1081 J/K/mol
304.97 K, Crystal 1 | 1130 J/K/mol
305.73 K, Crystal 1 | 1438 J/K/mol
308.77 K, Crystal 1 | 898.6 J/K/mol
308.77 K, Liquid | 896.2 J/K/mol
310 K, Liquid | 897.4 J/K/mol
320 K, Liquid | 907.2 J/K/mol
330 K, Liquid | 917 J/K/mol
340 K, Liquid | 926.7 J/K/mol
350 K, Liquid | 936.5 J/K/mol
360 K, Liquid | 946.2 J/K/mol
370 K, Liquid | 956 J/K/mol
